# Test results from patent EP4707279A1, “SUBSTITUTED TRICYCLIC HETEROCYCLIC COMPOUND AS PHARMACEUTICAL FOR TREATMENT OR PREVENTION OF COVID-19” (priority 2023, dated 2024).
# Tested on: SARS-CoV-2
# Assay: CPE inhibition assay, anti-SARS-CoV-2 virus activity in vitro (Test Example 4)
# Type: cell-based
# Settings: for Anti SARS-CoV-2 activity: CPE inhibition at 10 µM, VeroE6-TMPRSS2 cells, MOI 0.01, third day post infection, average of three tests; for inhibition at 10 µM: Severe acute respiratory syndrome coronavirus 2, VeroE6/TMPRSS2, 72 h, read-out: Anti SARS-CoV-2 activity
Compound,Anti SARS-CoV-2 activity,inhibition at 10 µM [%]
"(6R,10R,11aR)-1.3,6-tribenzyl-10-(benzyl oxy)-11b-hydroxyhexahydro-2H-pyrrolo [2',1':3,4]pyrazino[1,2-a][1.3,5] triazine-2,4,7(3H.6H)-trione [Compound 15A]",C (less than 1%),–
"O=C(NCc1ccc2ccccc2c1)[C@@H]1CCC2=C3N(c4ccccc4)C(=O)N(c4ccccc4)C(=O)N3[C@H](Cc3ccccc3)C(=O)N21 [Compound 16E, (6R,9S)-6-Benzyl-N-(naphthalen-2-ylmethyl)-2,4,7-trioxo-1,3-diphenyl-1,3,4,6,7,9,10,11-octahydro-2H-pyrrolo [2',1':3,4]pyrazino[1,2-a][1,3,5]triazine-9-carboxamide]",–,1 to 5
"Ethyl (6R,9S,11aR,11bR)-1.3 dibenzyl 11b-hydroxy 6 isobutyl-2.4.7 trioxodecahydro-2H pyrrolo[2',1':3,4] pyrazino[1.2 a][1.3.5] triazine 9 carboxylate [Compound 30A]",A (a CPE inhibition effect of 5% or more),–
"CC(C)[C@@H]1C(=O)N2[C@H](C(=O)NCc3cnc4ccccc4c3)CC[C@@H]2[C@@]2(O)N(Cc3ccco3)C(=O)N(Cc3ccco3)C(=O)N12 [Compound 28F, (6R,9S,11aR,11bR)-1,3-bis(2-furylmethyl)-11b-hydroxy-6-isopropyl-2,4,7-trioxo-N-(3-quinolylmethyl)decahydro-2H-pyrrolo[2',1':3,4]pyrazino[1,2-a][1,3,5]triazine-9-carboxamide]",–,> 5
"(6R.9S)-1.3-benzyl-6-(4-fluorobenzyl)-N-(naphthalen-2-ylmethyl)-2, 4,7-trioxo-1,3,4,6,7,9,10,11-octahydro-2H-pyrrolo [2',1':3,4]pyridazine [1,2-a][1,3,5]triazine-9-carboxamide [Compound 5E]",C (less than 1%),–
"(6R,9S,11aR,11bR)-1,3-Dibenzyl-9-(4-fluoroisoindolin-2-carbonyl)-11b-hydroxy-6-isopropylhexahydro -2H-pyrrolo[2',1':3,4]pyri dazino[1,2-a][1,3,5] triazine-2.4. 7(3H.6H)-trione [Compound 3J]",A (a CPE inhibition effect of 5% or more),–
"(6R.9S.11aR.11bR)-1,3-Dibenzyl-6-(4-fluorobenzyl)-11b-hydroxy-N-(naphthalen-2-yl methyl)-2,4,7-trioxodecahydro-2H-pyrrolo[2',1':3,4]pyridazine [1,2-a][1,3,5]triazine-9-carboxamide [Compound 5D]",A (a CPE inhibition effect of 5% or more),–
"CC(C)[C@@H]1C(=O)N2[C@H](C3=NCc4cn(-c5c[nH]c6ccccc56)c5cccc3c45)CC[C@@H]2[C@@]2(O)N(Cc3ccccc3)C(=O)N(Cc3ccccc3)C(=O)N12 [Compound 3H, (6R,95,11aR,11bR)-9-(1-((1H-indole-3-yl))-1,3-dihydropyrrolo[4,3,2-de]isoquinolin-5-yl)-1,3-dibenzyl-11b-hydroxy-6-isopropylhexahydro-2H-pyrrolo [2',1':3,4]pyridazine [1,2-a][1,3,5] triazine-2,4,7 (3H. 6H)-trione]",A (a CPE inhibition effect of 5% or more),–
"(6S,11a8)-1,3,6-tribenzyl-11b-hydroxy-11a-methylhexahydro-2H-pyrrolo[2',1':3,4]pyrazino [1,2-a][1,3,5]triazine-2,4,7(3H,6 H)-trione [Compound 12A]",B (a CPE inhibition effect of less than 5% but 1% or more),–
"O=C1C(Cc2ccccc2)N2C(=O)N(Cc3ccccc3)C(=O)N(Cc3ccccc3)C2=C2C[C@@H](OCc3ccccc3)CN12 (stereo partly drawn) [Compound 15B, (6R,10R)-1,3,6-tribenzyl-10-(benzyloxy)-1,9,10,11-tetrahydro-2H-pyrrolo[2',1':3,4] pyridazino[1,2-a][1,3,5] triazine-2,4,7(3H,6H)-trione]",–,< 1
"O=C1[C@@H](Cc2ccccc2)N2C(=O)N(Cc3ccccc3)C(=O)N(Cc3ccccc3)[C@]2(O)[C@H]2CC[C@@H](CNCc3ccc4ccccc4c3)N12 [Compound 1F, (6R,9S,11aR,11bR)-1,3,6-Tribenzyl-11b-hydroxy-9-(((naphthalen-2-ylmethyl)amino)methyl)hexahydro-2H-pyrrolo[2',1':3,4]pyridazine[1,2-a][1,3,5]triazine-2,4,7(3H,6H)-trione]",C (less than 1%),–
"CCOC(=O)[C@H]1CC[C@@H]2N1C(=O)[C@H](C(C)C)N1C(=O)N(Cc3ccccc3)C(=O)N(Cc3ccccc3)[C@@]21O [Compound 26A, Ethyl (6S,9R,11aS,11bS)-1,3-dibenzyl-11b-hydroxy-6-isopropyl-2,4,7-trioxodecahydro-2H-pyrrolo[2',1':3,4]pyrazi no[1,2-a][1,3,5] triazine-9-carboxylate]",–,> 5
"(6 R,9 S,11aR,11bR)-1,3-Dibenzyl-N-(bicyclo[1,1,1]penta n-1-yl) 11b-Hydroxy-6-isopropyl-2,4,7-trioxodecahydro- 2H-pyrrolo [2"",1"":3,4]pyrazino[ 1,2-a][1,3,5] triazine-9-carboxamide [Compound 3I]",A (a CPE inhibition effect of 5% or more),–
"O=C1[C@H](Cc2ccccc2)N2C(=O)N(Cc3ccccc3)C(=O)N(Cc3ccccc3)C2=C2C[C@@H](OCc3ccccc3)CN12 [Compound 11B, (6S,10R)-1,3,6-Tribenzyl-10-(benzoxy)-1,9,10,11-tetrahydro-2 H-pyrrolo[2',1':3,4]pyridazino [1,2-a][1,3,5]triazine-2,4,7 (3H,6H)-trione]",–,> 5
"Cc1noc([C@@H]2CC[C@H]3N2C(=O)[C@@H](Cc2ccccc2)N2C(=O)N(Cc4cccs4)C(=O)N(Cc4cccs4)C32O)n1 (stereo partly drawn) [Compound 18I, (6R,9S,11aR)-6-benzyl-11b-hydroxy-9-(3-methyl-1,2,4-oxadiazol-5-yl)-1,3-bis(thiophen-2-ylmethyl)hexahydro-2H-pyrrolo[2',1':3,4]pyridazine[1,2-a][1,3,5]triazine-2,4,7(3H,6H)-trione]",B (a CPE inhibition effect of less than 5% but 1% or more),–
"CCOC(=O)[C@@H]1CCC2=C3N(Cc4ccccc4)C(=O)N(Cc4ccccc4)C(=O)N3[C@H](Cc3ccccc3)C(=O)N21 [Compound 1B, Ethyl (6R,9S)-1,3,6-tribenzyl-2,4,7-trioxo-1,3,4,6,7,9,10,11-octahydro-2H-pyrrolo[2',1':3,4]pyridazine[1,2-a][1,3,5]triazine-9-carboxylate]",C (less than 1%),–
"O=C(NCc1ccc2ccccc2c1)[C@@H]1CCC2=C3N(Cc4ccccc4)C(=O)N(Cc4ccccc4)C(=O)N3[C@H](Cc3ccccc3)C(=O)N21 [Compound 1E, (6R,9S)-1,3,6-Tribenzyl-N-(naphthalen-2-ylmethyl)-2,4,7-trioxo-1,3,4,6,7,9,10,11-octahydro-2H-pyrrolo[2',1':3,4] pyrazino[1,2-a][1,3,5]triazine-9-carboxamide]",–,< 1
"O=C(O)[C@@H]1CC[C@H]2N1C(=O)[C@@H](Cc1ccccc1)N1C(=O)N(Cc3ccccc3)C(=O)N(Cc3ccccc3)[C@]21O [Compound 1C, (6R,9S,11aR,11bR)-1,3,6-Tribenzyl-11b-hydroxy-2,4,7-trioxo-2H-pyrrolo[2',1':3,4]pyridazino[1,2-a][1,3,5] triazine-9-carboxylic acid]",C (less than 1%),–
"O=C(NCc1ccc2ccccc2c1)[C@@H]1CC[C@H]2N1C(=O)[C@@H](Cc1ccccc1)N1C(=O)N(CC3CCCC3)C(=O)N(CC3CCCC3)[C@]21O [Compound 17D, (6R,9S,11aR,11bR)-6-Benzyl-1,3-bis (cyclopentylmethyl)-11b-h ydroxy-N-(naphthalen-2-ylmethyl)-2,4,7-trioxodecahydro-2H-pyrrolo[2',1':3,4] pyridazino[1,2-a][1,3,5] triazine-9-carboxamide]",A (a CPE inhibition effect of 5% or more),–
"(6R,9S,11aR,11bR)-1,3-Dibenzyl-11b-hydroxy-6-isopropyl-N-(naphthalen-2-ylmethyl)-2,4,7-trioxodecahydro-2H-pyrrolo[ 2',1':3,4]pyrazino[1,2-a] [1,3,5]triazine^-9^-carbamide [Compound 3D]",A (a CPE inhibition effect of 5% or more),–
"(6S,13aS)-1,3,6-tribenzyl-13b-hydroxy-1,13,13a,13b-tetrahydro-2H-[1,3,5] triazino[2',1':3,4]pyraz ino[1,2-a]indole-2,4.7(3H,6H)-trione [Compound 24A]",C (less than 1%),–
"CCOC(=O)[C@@H]1CCC2=C3N(Cc4ccccc4)C(=O)N(Cc4ccccc4)C(=O)N3[C@H](Cc3ccccc3)C(=O)N21 (stereo in doubt) [Compound 4B, Ethyl (6R,9S)-1,3,6-tribenzyl-2,4,7-trioxo-1,3,4,6,7,9,10,11-octahydro-2H-pyrrolo[2',1':3,4] pyrazino[1,2-a][1,3,5]triazine-9-carboxylate]",–,> 5
"CCOC(=O)[C@@H]1CC[C@H]2N1C(=O)[C@@H](CC)N1C(=O)N(Cc3ccccc3)C(=O)N(Cc3ccccc3)[C@]21O [Compound 29A, Ethyl (6R,9S,11aR,11bR)-1,3-dibenzyl-6-ethyl-11b-hydroxy-2,4,7-trioxodecahydro-2H-pyrrolo[2',1':3,4]pyrazi no[1,2-a][1,3,5] triazine-9-carboxylate]",–,> 5
"(6R,9S,11aR,11bR)-1,3-Dibenzyl-11b-hydroxy-6-(4 -methoxybenzyl)-N-(naphthalen-2-ylmethyl)-2,4,7-trioxodecahydro-2H-pyrrolo[2',1':3,4] pyridazino[1,2-a][1.3.5] triazine-9-carboxamide [Compound 6D]",B (a CPE inhibition effect of less than 5% but 1% or more),–
"COC(=O)[C@@H]1CCC[C@H]2N1C(=O)[C@@H](Cc1ccccc1)N1C(=O)N(Cc3ccccc3)C(=O)N(Cc3ccccc3)C21O (stereo partly drawn) [Compound 25A, Methyl (6R,9S,12aR)-1,3,6-tribenzyl-12b-hydroxy-2,4,7-trioxododecahydropyri do[2',1':3,4]pyrazino[1,2-a][1,3,5]triazine-9-carboxylate]",–,> 5
